According to ChEMBL document CHEMBL3414509, “A FRET-based assay for screening SIRT6 modulators” (Eur J Med Chem, 2015):
Calls of active or inactive are those of the source. The calls are words filed in the database; no cut-off is given here. Peptide text beside a SMILES is read from it. * marks the point of attachment. X1 = CN(C)c1ccc(/N=N/c2ccc(C(=O)*)cc2)cc1; EDANS = O=S(=O)(O)c1cccc2c(NCCN*)cccc12; Myristoyl = CCCCCCCCCCCCCC(=O)*

What was measured:
[1] = target: T1, NAD-dependent protein deacetylase sirtuin-1 (Homo sapiens) (UniProt Q96EB6); assay: Inhibition of SIRT1 (unknown origin) at 300 uM using (DABCYL)ISGASE(AcK)DIVHSE(EDANS)G substrate in presence of NAD followed by 1 hr incubation with trypsin by FRET assay
T1 sequence (whole entry): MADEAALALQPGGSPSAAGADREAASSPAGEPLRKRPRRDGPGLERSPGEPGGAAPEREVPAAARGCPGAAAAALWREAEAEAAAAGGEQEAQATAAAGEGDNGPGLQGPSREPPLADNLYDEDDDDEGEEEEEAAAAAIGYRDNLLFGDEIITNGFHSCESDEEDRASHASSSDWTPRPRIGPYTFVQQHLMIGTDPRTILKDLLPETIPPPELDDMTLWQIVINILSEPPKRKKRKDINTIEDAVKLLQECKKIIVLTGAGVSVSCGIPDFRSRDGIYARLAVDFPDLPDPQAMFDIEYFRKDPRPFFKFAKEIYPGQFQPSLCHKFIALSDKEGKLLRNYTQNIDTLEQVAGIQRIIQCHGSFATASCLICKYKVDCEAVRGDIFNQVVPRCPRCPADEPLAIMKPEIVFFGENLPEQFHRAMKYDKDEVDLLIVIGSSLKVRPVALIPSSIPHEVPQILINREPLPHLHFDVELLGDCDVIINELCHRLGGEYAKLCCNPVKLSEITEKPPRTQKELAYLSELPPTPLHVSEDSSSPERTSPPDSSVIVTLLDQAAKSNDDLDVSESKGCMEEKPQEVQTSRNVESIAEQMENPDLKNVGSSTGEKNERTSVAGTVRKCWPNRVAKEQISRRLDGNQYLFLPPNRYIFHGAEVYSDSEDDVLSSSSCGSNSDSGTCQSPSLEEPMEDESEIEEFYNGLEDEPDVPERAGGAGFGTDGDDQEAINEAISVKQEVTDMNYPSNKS

[2] = target: NAD-dependent protein deacylase sirtuin-6 (Homo sapiens) (UniProt Q8N6T7); assay: Inhibition of SIRT6 (unknown origin) at 300 uM using (DABCYL)ISGASE(MyK)DIVHSE(EDANS)G substrate in presence of NAD followed by 1 hr incubation with trypsin by FRET assay
Sequence of NAD-dependent protein deacylase sirtuin-6 (Homo sapiens) (Q8N6T7 whole entry): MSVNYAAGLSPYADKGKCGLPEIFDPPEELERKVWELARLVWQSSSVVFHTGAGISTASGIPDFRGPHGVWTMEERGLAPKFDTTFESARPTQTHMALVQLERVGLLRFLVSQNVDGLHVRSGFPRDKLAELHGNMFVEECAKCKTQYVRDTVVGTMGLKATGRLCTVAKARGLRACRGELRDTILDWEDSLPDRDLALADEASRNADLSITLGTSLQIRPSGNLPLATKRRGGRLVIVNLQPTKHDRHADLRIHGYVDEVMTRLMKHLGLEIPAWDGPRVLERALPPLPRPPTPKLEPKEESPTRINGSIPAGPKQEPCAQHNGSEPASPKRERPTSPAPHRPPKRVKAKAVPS

Trypsin (Homo sapiens) = Trypsin (Homo sapiens) (UniProt P07477+P07478+P35030); assay: Activity of trypsin (unknown origin) assessed as enzyme-mediated compound hydrolysis by measuring increase in fluorescence at 10 uM incubated for 1 hr at 37 degC relative to control; format: protein assay
[3] = target: NAD-dependent protein deacylase sirtuin-6 (Homo sapiens) (UniProt Q8N6T7); assay: Activity of SIRT6 (unknown origin) assessed as enzyme-mediated compound hydrolysis at 10 uM incubated for 60 mins in presence of NAD followed by 1 hr incubation with trypsin

SMILES	inhibition [2] [%]	other results
NC(=O)c1cccnc1	> 50	inhibition [1]: Active
CC[C@H](C)[C@H](NC(=O)c1ccc(/N=N/c2ccc(N(C)C)cc2)cc1)C(=O)N[C@@H](CO)C(=O)NCC(=O)N[C@@H](C)C(=O)N[C@@H](CO)C(=O)N[C@@H](CCC(=O)O)C(=O)N[C@@H](CCCCN)C(=O)N[C@@H](CC(=O)O)C(=O)N[C@H](C(=O)N[C@H](C(=O)N[C@@H](Cc1cnc[nH]1)C(=O)N[C@@H](CO)C(=O)N[C@@H](CCC(=O)NCCNc1cccc2c(S(=O)(=O)O)cccc12)C(=O)NCC(=O)O)C(C)C)[C@@H](C)CC (HELM PEPTIDE1{[CN(C)c1ccc(/N=N/c2ccc(C(=O)[*:2])cc2)cc1].I.S.G.A.S.E.K.D.I.V.H.S.E.G}|CHEM1{[O=S(=O)(O)c1cccc2c(NCCN[*:1])cccc12]}$PEPTIDE1,CHEM1,14:R3-1:R1$$$V2.0)		fold change (FC) (Trypsin (Homo sapiens)): 15
CCCCCCCCCCCCCC(=O)NCCCC[C@H](NC(=O)[C@H](CCC(=O)O)NC(=O)[C@H](CO)NC(=O)[C@H](C)NC(=O)CNC(=O)[C@H](CO)NC(=O)[C@@H](NC(=O)c1ccc(/N=N/c2ccc(N(C)C)cc2)cc1)[C@@H](C)CC)C(=O)N[C@@H](CC(=O)O)C(=O)N[C@H](C(=O)N[C@H](C(=O)N[C@@H](Cc1cnc[nH]1)C(=O)N[C@@H](CO)C(=O)N[C@@H](CCC(=O)NCCNc1cccc2c(S(=O)(=O)O)cccc12)C(=O)NCC(=O)O)C(C)C)[C@@H](C)CC (X1-ISGASEK(Myristoyl)DIVHSE(EDANS)G-OH)		fold change (FC) [3]: 10
O=C1CCc2c(ccc3ccccc23)O1	< 50	
CC(NC(=O)c1ccccc1/N=C/c1c(O)ccc2ccccc12)c1ccccc1 (configuration not stated)	< 50	
N#C/C(=C\c1ccc(-c2cc(Cl)ccc2Cl)o1)C(=O)Nc1cccc2ncccc12	< 50	
